The target in data set [1] is T1, dioxin receptor (Homo sapiens, UniProt P35869).
T1 construct: endogenous in cells; host or cells: hepatocarcinoma cells (cytoplasm fraction)
T1 sequence (P35869 11-848): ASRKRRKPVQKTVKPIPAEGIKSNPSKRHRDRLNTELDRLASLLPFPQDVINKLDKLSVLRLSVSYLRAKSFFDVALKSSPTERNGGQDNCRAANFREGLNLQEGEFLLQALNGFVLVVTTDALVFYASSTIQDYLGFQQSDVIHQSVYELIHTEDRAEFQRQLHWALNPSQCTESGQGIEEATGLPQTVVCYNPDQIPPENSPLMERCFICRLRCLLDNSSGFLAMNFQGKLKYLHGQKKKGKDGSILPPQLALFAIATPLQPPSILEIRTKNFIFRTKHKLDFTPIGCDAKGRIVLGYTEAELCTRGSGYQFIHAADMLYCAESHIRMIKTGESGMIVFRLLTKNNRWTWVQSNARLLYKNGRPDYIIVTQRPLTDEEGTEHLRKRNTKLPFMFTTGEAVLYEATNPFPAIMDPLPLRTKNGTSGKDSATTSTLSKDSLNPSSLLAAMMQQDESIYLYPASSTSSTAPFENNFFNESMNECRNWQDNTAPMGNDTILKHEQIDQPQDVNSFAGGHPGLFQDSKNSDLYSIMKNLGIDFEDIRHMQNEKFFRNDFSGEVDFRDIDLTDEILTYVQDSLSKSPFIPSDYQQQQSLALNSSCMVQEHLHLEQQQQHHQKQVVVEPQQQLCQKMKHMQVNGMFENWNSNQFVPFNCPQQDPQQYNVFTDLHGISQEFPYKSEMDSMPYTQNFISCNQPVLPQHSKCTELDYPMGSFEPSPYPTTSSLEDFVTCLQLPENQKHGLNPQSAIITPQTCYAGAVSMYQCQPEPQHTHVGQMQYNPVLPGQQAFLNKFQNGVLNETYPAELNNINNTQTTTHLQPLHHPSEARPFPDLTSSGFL
Kind of data set: Inhibition of 3[H]-dioxin binding to its receptor in hepatocarcinoma cell cytoplasm (hydroxylapatite). As to the method:
Compound 2 and 3[H]-dioxin were added to cytoplasm of hepatocarcinoma cells and analysis on binding of ligand-receptor was performed using hydroxylapatite. […] The results are illustrated in FIG. 2.
FIG. 2 illustrates the ability in percentage of Compound 2 to inhibit the binding of 3[H]-dioxin to its receptor.

Data set [2] relates to Cytochrome P450 enzyme activity (ethoxyresorufin-O-deethylase activity). Kind of data set: Dioxin-induced EROD (cytochrome P450 enzyme) activity inhibition in Hep G2 cells. In kind it is cell-based. The note with it: Homo sapiens, read-out: Dioxin-induced EROD activity inhibition IC50. As to the method:
(§1) Hep G2 cell that is a human hepatocarcinoma cell line was cultured in an incubator with a culture medium of Dulbecco's Modified Eagle Medium (DMEM) containing 10% of Fetal Bovine Serum (FBS) at 37° C. under an atmosphere of 5% of CO2.
1×104 of the cultured human hepatocarcinoma cells were placed into wells of a […]. After 24 hours, the cells were treated with a solution in which compounds represented by formulae 2 through 8 (obtained from Chembridge Corporation, San Diego, Calif.) were dissolved in dimethyl sulfoxide (DMSO) in a concentration of 0.1%. After one hour, the cells were treated with 3 nM of 2,3,7,8-tetrachlorodibenzo-p-dioxin (obtained from Cambridge Isotope Laboratory, Andover, Mass., U.S.A.). Cytochrome P450 enzyme activity was measured after 24 hours and the measured activity was evaluated by measuring ethoxyresorufin-O-deethylase activity (EROD, Ciolino et al, 1998).

For data set [3], the system named is cytochrome P450 1A1. Kind of data set: Western blot of dioxin-induced cytochrome P450 1A1 expression in hepatocarcinoma cells. In kind it is cell-based, human. As to the method:
as §1
3×10^5 of the cultured human hepatocarcinoma cells were placed into tissue culture plates and cultured for 24 hours. After 24 hours, the cells were treated with a solution in which Compound 2 (obtained from Chembridge Corporation, San Diego, Calif.) was dissolved in dimethyl sulfoxide (DMSO) in a concentration of 0.1%. After one hour, the cells were treated with 3 nM of 2,3,7,8-tetrachlorodibenzo-p-dioxin (obtained from Cambridge Isotope Laboratory, Andover, Mass., U.S.A.). After 24 hours, the culture medium was removed by suction and the cells were washed with phosphate buffer solution. Then the cells were lysed and the protein was quantified.
In FIG. 1, flavone that has been widely reported to inhibit dioxin toxicity even though it increases dioxin toxicity at high concentrations was used as a positive control group. FIG. 1 illustrates Western blot analysis of cells treated with Compound 2 and flavone.
A general note: In western blotting, separated proteins are transferred to a membrane and probed.

Read-outs that look alike come from different tables or passages of the source.

By IC50 is commonly meant the midpoint of a concentration-inhibition curve.

Consider `Cc1ccccc1N=Nc1ccc(NC(=O)c2ccnn2C)c(C)c1` [Compound 2], for which, in data set [1] (Compound 2 at 0.1, 1 and 10 μM, FIG. 2), the “binding ability of 3[H]-dioxin to its receptor with increasing concentration” value is “decreased as the concentration of Compound 2 increased”. For the same compound, in data set [1] (cytoplasm of hepatocarcinoma cells, hydroxylapatite), the “binding of 3[H]-dioxin to its receptor” value was “inhibited the binding”. In addition, the IC50 in data set [2] (HepG2, 24 h) came to 30 ± 2 nM. Besides, the “expression of cytochrome P450 1A1 that is increased by dioxin” value in data set [3] (human hepatocarcinoma cells, 3 nM dioxin, 24 hours, Western blot) is reported as “inhibited expression of cytochrome P450 1A1”. Moreover, the “effect in decreasing the amount of expressed cytochrome P450 enzyme” value in data set [3] (various concentrations, FIG. 1) was “excellent effect”. On to `CC(=O)N(C(C)=O)c1ccc(N=Nc2ccccc2C)cc1C` [Compound 3], for which the IC50 in data set [2] (HepG2, 24 h) is 75 ± 4 nM. On the same count and under the same terms, the value for `Cc1ccccc1N=Nc1ccc(NC(=O)c2ccc(F)cc2)c(C)c1` [Compound 4] was 105 ± 11 nM; that for `Cc1ccccc1N=Nc1ccc(NC(=O)C(C)C)c(C)c1` [Compound 5] was 110 ± 7 nM. On the same count and under the same terms, next, `Cc1ccccc1N=Nc1ccc(NC(=O)c2cccs2)c(C)c1` [Compound 6]: 153 ± 10 nM. `Cc1cc(N=Nc2ccccc2C)ccc1N` [Compound 7]: the IC50 in data set [2] (HepG2, Hep G2 cells, 3 nM 2,3,7,8-tetrachlorodibenzo-p-dioxin, measured after 24 hours) was determined as 215 ± 42 nM. In the case of `CCCCNC(=O)Nc1ccc(N=Nc2ccccc2C)cc1C` [Compound 8], the IC50 in data set [2] (HepG2, 24 h) amounted to 450 ± 75 nM.

The record behind these values is patent publication US20070032458A1, “Compound having activity for inhibiting dioxin toxicity, pharmaceutical composition comprising the compound and method for treating disease resulting from dioxin toxicity using the compound” (priority 2005, published 2007).
